Measurements reported in US5217877A, “Process for the preparation of α-glucosidase inhibitor, pradimicin Q” (Bristol-Myers Squibb Company, priority 1991, dated 1993).
Converted amounts (≈) assume the structure as drawn.

Assays:
[1] = target: T1, α-glucosidase (Sigma G-5003) (Saccharomyces cerevisiae, UniProt P53341); assay: α-Glucosidase inhibitory activity (p-nitrophenyl-α-D-glucopyranoside hydrolysis); type: biochemical; conditions: for IC50 / IC50 (α-glucosidase inhibitory activity): 37° C., 15 minutes, pH 6.8, 0.7 mM p-nitrophenyl-α-D-glucopyranoside
T1 construct: purchased Sigma G-5003
T1 sequence (P53341 whole entry): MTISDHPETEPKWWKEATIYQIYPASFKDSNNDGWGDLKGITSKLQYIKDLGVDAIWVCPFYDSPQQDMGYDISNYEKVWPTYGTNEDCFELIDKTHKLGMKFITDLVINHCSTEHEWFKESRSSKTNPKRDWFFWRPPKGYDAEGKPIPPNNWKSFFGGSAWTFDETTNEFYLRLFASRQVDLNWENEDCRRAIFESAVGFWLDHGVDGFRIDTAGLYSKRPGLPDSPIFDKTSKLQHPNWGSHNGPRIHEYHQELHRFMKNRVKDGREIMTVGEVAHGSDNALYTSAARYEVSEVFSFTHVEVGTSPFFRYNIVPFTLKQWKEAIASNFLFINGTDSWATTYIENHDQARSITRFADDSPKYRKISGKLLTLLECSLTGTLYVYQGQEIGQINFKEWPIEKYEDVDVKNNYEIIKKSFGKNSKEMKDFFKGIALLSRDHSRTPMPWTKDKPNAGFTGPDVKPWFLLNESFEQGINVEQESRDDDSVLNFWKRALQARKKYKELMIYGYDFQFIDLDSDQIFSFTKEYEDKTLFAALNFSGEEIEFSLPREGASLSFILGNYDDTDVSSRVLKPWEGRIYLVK
Method: Forty μl of α-glucosidase (Sigma G-5003, #11 U/mg protein) (0.1 mg/ml in 100 mM phosphate buffer, pH 6.8=[…]) for tests (or the buffer for the control), 950 μl of 0.7 mM p-nitrophenyl-α-D-glucopyranoside (Sigma N1377), and 10 μl of the assay compound (various concentrations dissolved in DMSO) were mixed and incubated at 37° C. for 15 minutes. To the reaction mixture, 1.0 ml of 0.2N NaOH and then 1.0 ml of n-butanol were added and voltex-mixed. […] IC50 was determined from a standard curve of p-nitrophenol released when the assay was run without the test compound (0% inhibition) and when the assay was run without the enzyme (100% inhibition).

[2] = tested on: mouse melanoma B16 cells; assay: cells; conditions: B16, read-out: cytotoxic activity IC50

| Compound | α-glucosidase inhibitory activity (in words) [1] | IC50 [1] | IC50 (α-glucosidase inhibitory activity) [1] | IC50 [2] |
| --- | --- | --- | --- | --- |
| CNC1C(C)OC(OC2c3cc(C)c(C(=O)NC(C)C(=O)O)c(O)c3-c3c(cc4c(c3O)C(=O)c3cc(OC)cc(O)c3C4=O)C2O)C(O)C1OC1OCC(O)C(O)C1O (stereo not drawn) [Pradimicin A] | no α-glucosidase inhibitory activity | > 119 µM | – | – |
| CN[C@@H]1[C@H](O[C@@H]2O[C@H](CO)[C@H](O)[C@H](O)[C@@H]2O)[C@@H](O)[C@H](O[C@@H]2c3cc(C)c(C(=O)N[C@H](C)C(=O)O)c(O)c3-c3c(cc4c(c3O)C(=O)c3cc(OC)cc(O)c3C4=O)[C@@H]2O)O[C@H]1C [Pradimicin L] | no α-glucosidase inhibitory activity | – | > 100 µg/mL | – |
| Cc1cc2c(c(O)c1C(=O)O)-c1c(O)c3c(c(O)c1CC2O)C(=O)c1c(O)cc(O)cc1C3=O (stereo not drawn) [Pradimicin Q, pradimicin Q] | – | 6.46 µM | – | 75 µg/mL (≈ 162 µM) |
| COc1cc(O)c2c(c1)C(=O)c1c(cc3c(c1O)-c1c(cc(C)c(C(=O)N[C@H](CO)C(=O)O)c1O)[C@H](O[C@@H]1O[C@H](C)[C@H](N(C)C)[C@H](O[C@@H]4OC[C@@H](O)[C@H](O)[C@H]4O)[C@H]1O)[C@H]3O)C2=O [N,N-dimethylpradimicin FA-2] | no α-glucosidase inhibitory activity | – | > 100 µg/mL | – |
| COc1cc(O)c2c(c1)C(=O)c1c(O)c3c(c(OC)c1C2=O)C(O)C(O)c1cc(C)c(C(=O)NC(C)C(=O)O)c(O)c1-3 (stereo not drawn) [Benanomicin C, benanomicin C] | – | 107 µM | – | – |
